Reference: patent US20180099931A1 (AbbVie S.à.r.l., priority 2016, published 2018)
Like-named read-outs stand apart in the source and are kept apart here.

Target: T1, F508delCFTR (Homo sapiens, UniProt P13569, DEL508-508)
T1 construct: expressed in transfected cells; host or cells: CFBE41o- human lung-derived epithelial cells (CFBE4lo-F508delCFTR-HRP), doxycycline-inducible
Test: Cell Surface Expression-Horse Radish Peroxidase (CSE-HRP) Assay;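 as to Maximum % activity (with co-corrector): co-corrector and positive control are both the same reference corrector at 2 µM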;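 as to Maximum % activity (without co-corrector): percent of the 2 µM on-plate positive control corrector response above DMSO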
Format: cell-based
Details: for Maximum % activity (with co-corrector) / Emax: maximum at any tested concentration, normalized to on-plate positive control; for Emax: read-out: Maximum % activity (without co-corrector)
Description: Cell Surface Expression-Horse Radish Peroxidase (CSE-HRP) Assay;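 as to Maximum % activity (with co-corrector): co-corrector and positive control are both the same reference corrector at 2 µM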;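 as to Maximum % activity (without co-corrector): percent of the 2 µM on-plate positive control corrector response above DMSO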
The development was achieved by expressing the F508delCFTR mutation along with a horseradish peroxidase (HRP) in the fourth exofacial loop, and then measuring the HRP activity using luminescence readout from these cells, CFBE4lo-F508delCFTR-HRP, that were incubated overnight with the test corrector compounds, either without or with the co-corrector. […] The test compounds were then added either without or with a co-corrector at the required concentrations and further incubated for 18-24 hours at 33° C. The highest concentration tested was 20 μM with an 8-point concentration response curve using a 3-fold dilution in both the test compound without or with the co-corrector. Three replicate plates were run to determine one EC50. All plates contained negative controls (dimethyl sulfoxide, DMSO) and positive control (2 μM of 3-[(2R,4R)-4-({[1-(2,2-difluoro-1,3-benzodioxol-5-yl)cyclopropyl]carbonyl}amino)-7-methoxy-3,4-dihydro-2H-chromen-2-yl]benzoic acid) as well as on-plate concentration response of the positive control. […] The raw counts from the experiment were analyzed using Accelrys® Assay Explorer v3.3.
1−[3*SDPositive Control+3*SDNegative Control/Absolute(MeanPositive Control−MeanNegative Control)]
wherein “SD” is standard deviation.
The % activity measured at each of the 8 test concentrations of the test compound added either without or with a co-corrector (2 μM of 3-[(2R,4R)-4-({[1-(2,2-difluoro-1,3-benzodioxol-5-yl)cyclopropyl]carbonyl}amino)-7-methoxy-3,4-dihydro-2H-chromen-2-yl]benzoic acid) was normalized to the on-plate positive control using the following formulae:
% activity(Test compound without co-corrector)=[(test compound without co-corrector response−DMSO response)/(positive control response−DMSO response)]*100
% activity(Test compound with co-corrector)=[(test compound with co-corrector response−DMSO response)/(positive control response−DMSO response)]*100
The maximum % activity achieved for the test compound either without or with a co-corrector at any tested concentration is presented in Table 4 along with the respective EC50's calculated using the following general sigmoidal curve with variable Hill slope equation (described as Model 42 in the Accelrys® Assay Explorer v3.3 software):
General sigmoidal curve with concentration, response, top, bottom, EC50 and Hill slope. This model describes a sigmoidal curve with an adjustable baseline, a. The equation can be used to fit curves where response is either increasing or decreasing with respect to the independent variable, “x”.
“x” is a concentration of drug under test. “y” is the response. “a” is the maximum response, and “d” is the minimum response “c” is the inflection point (EC50) for the curve. That is, “y” is halfway between the lower and upper asymptotes when x=c. “b” is the slope-factor or Hill coefficient. The sign of b is positive when the response increases with increasing dose and is negative when the response decreases with increasing dose (inhibition).

[1] = test compound without co-corrector, read-out: EC50 (without co-corrector)
[2] = with co-corrector (2 μM of 3-[(2R,4R)-4-({[1-(2,2-difluoro-1,3-benzodioxol-5-yl)cyclopropyl]carbonyl}amino)-7-methoxy-3,4-dihydro-2H-chromen-2-yl]benzoic acid), read-out: EC50 (with co-corrector)
[3] = CSE-HRP, test compound without co-corrector, read-out: EC50 (without co-corrector)
[4] = CSE-HRP, with co-corrector (2 μM of 3-[(2R,4R)-4-({[1-(2,2-difluoro-1,3-benzodioxol-5-yl)cyclopropyl]carbonyl}amino)-7-methoxy-3,4-dihydro-2H-chromen-2-yl]benzoic acid), read-out: EC50 (with co-corrector)
[5] = CSE-HRP, with co-corrector (2 μM)
[6] = test compound without co-corrector
[7] = with co-corrector (2 μM of 3-[(2R,4R)-4-({[1-(2,2-difluoro-1,3-benzodioxol-5-yl)cyclopropyl]carbonyl}amino)-7-methoxy-3,4-dihydro-2H-chromen-2-yl]benzoic acid)

T1 sequence (P13569 with tags, fused parts or gaps DEL508-508): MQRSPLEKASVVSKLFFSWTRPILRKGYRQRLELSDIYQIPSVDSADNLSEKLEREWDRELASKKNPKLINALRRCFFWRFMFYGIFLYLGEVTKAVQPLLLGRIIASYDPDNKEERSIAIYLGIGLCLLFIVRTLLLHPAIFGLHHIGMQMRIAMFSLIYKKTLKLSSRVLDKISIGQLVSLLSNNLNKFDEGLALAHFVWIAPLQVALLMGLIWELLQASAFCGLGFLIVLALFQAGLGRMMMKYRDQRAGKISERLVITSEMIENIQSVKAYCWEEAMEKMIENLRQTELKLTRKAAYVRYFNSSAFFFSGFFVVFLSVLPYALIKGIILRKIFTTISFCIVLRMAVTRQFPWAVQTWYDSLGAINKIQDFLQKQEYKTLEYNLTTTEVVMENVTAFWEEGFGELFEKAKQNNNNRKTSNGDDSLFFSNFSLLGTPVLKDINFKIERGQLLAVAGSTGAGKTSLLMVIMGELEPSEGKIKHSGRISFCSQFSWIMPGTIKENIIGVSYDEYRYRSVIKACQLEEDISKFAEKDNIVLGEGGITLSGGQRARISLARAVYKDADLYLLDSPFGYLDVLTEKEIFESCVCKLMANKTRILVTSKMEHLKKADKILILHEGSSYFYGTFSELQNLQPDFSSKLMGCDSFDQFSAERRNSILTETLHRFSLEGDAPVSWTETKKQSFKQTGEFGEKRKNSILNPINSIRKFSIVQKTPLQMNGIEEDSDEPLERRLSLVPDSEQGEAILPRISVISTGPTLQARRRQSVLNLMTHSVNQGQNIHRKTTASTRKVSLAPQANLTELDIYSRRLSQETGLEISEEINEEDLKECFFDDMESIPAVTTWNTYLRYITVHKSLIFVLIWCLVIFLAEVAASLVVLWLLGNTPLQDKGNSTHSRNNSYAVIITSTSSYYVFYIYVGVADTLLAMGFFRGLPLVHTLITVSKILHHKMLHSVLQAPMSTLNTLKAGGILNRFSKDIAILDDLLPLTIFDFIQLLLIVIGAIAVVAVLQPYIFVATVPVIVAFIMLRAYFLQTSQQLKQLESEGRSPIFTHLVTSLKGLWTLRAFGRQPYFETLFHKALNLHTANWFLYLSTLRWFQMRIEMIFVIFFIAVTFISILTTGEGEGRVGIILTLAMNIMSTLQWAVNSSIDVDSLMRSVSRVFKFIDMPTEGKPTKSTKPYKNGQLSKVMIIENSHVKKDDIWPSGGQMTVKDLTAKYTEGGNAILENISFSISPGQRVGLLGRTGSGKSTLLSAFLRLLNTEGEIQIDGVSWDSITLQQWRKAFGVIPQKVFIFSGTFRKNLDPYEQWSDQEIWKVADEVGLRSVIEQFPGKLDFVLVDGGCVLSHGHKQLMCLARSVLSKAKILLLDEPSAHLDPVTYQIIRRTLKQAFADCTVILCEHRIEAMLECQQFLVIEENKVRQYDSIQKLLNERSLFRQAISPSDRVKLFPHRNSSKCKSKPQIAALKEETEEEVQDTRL

SMILES: COc1ccc(C(F)(F)F)cc1CN[C@H]1[C@H](C(C)(C)OC)[C@@H](C(=O)O)N(C(=O)OC(C)C)[C@H]1c1ccccc1 [Example I-174]
- EC50 [1]: 1000 to 10000 nM
- EC50 [2]: 1000 to 10000 nM
- Maximum % activity (with co-corrector) (with co-corrector (2 μM)): +++ (≥350)
- Emax (without co-corrector): > 200%

SMILES: COc1ccc(C(C)(C)C)cc1CN[C@H]1[C@H](C(C)(C)C)[C@@H](C(=O)O)N(C(=O)C(OC)C2CC2)[C@H]1c1ccccc1 (single isomer, unassigned) [Example I-95]
- EC50 [1]: 1000 to 10000 nM
- EC50 [2]: 1000 to 10000 nM
- Maximum % activity (with co-corrector) (with co-corrector (2 μM)): +++ (≥350)
- Emax (without co-corrector): > 200%

SMILES: COc1ccc(C(C)(C)C)cc1CN[C@H]1[C@H](C(C)(C)C)[C@@H](C(=O)O)N(C(=O)Cc2ccc(F)cc2)[C@H]1c1ccccc1 [II-181]
- EC50 [3]: 1000 to 10000 nM
- EC50 [4]: 1000 to 10000 nM
- Maximum % activity (with co-corrector) [5]: +++ (≥350)
- Emax (CSE-HRP, without co-corrector): 100 to 200%

SMILES: COc1ccc(C(C)(C)C)cc1CN[C@H]1[C@H](C(C)(C)C)[C@@H](C(=O)O)N(C(=O)Cc2ccccc2Cl)[C@H]1c1ccccc1 [II-183]
- EC50 [3]: < 1000 nM
- EC50 [4]: < 1000 nM
- Maximum % activity (with co-corrector) [5]: +++ (≥350)
- Emax (CSE-HRP, without co-corrector): > 200%

SMILES: COc1nc(C(C)(C)C)ccc1CN[C@H]1[C@H](C(C)(C)C)[C@@H](C(=O)O)N(C(=O)OC(C)C)[C@H]1c1ccccc1C(C)C [Example I-216]
- EC50 [1]: < 1000 nM
- EC50 [2]: < 1000 nM
- Maximum % activity (with co-corrector) (with co-corrector (2 μM)): +++ (≥350)
- Emax (without co-corrector): > 200%

SMILES: COc1ccc(C2(C)CCC2)cc1CN[C@H]1[C@H](C(C)(C)C)[C@@H](C(=O)O)N(C(=O)[C@@H]2CCCCO2)[C@H]1c1ccccc1C(C)C [Example I-304]
- EC50 [3]: < 1000 nM
- EC50 [4]: < 1000 nM
- Maximum % activity (with co-corrector) [5]: +++ (≥350)
- Emax (CSE-HRP, without co-corrector): > 200%

SMILES: COc1ccc(C(C)C)cc1CN[C@@H]1[C@@H](C(C)(C)C)[C@H](C(=O)O)N(C(=O)C2CCCCC2)[C@@H]1c1ccccc1 (racemic) [II-73]
- EC50 [3]: 1000 to 10000 nM
- EC50 [4]: 1000 to 10000 nM
- Maximum % activity (with co-corrector) [5]: +++ (≥350)
- Emax (CSE-HRP, without co-corrector): > 200%

SMILES: COc1ccc(-c2ccccc2)cc1CN[C@H]1[C@H](C(C)(C)C)[C@@H](C(=O)O)N(C(=O)C2CCCCC2)[C@H]1c1ccccc1F [II-245]
- EC50 [3]: < 1000 nM
- EC50 [4]: < 1000 nM
- Maximum % activity (with co-corrector) [5]: +++ (≥350)
- Emax (CSE-HRP, without co-corrector): 100 to 200%

SMILES: COc1ccc(Cl)cc1CN[C@H]1[C@H](C(C)(C)C)[C@@H](C(=O)O)N(C(=O)OC(C)C)[C@H]1c1ccccc1OC [II-137]
- EC50 [3]: 1000 to 10000 nM
- EC50 [4]: 1000 to 10000 nM
- Maximum % activity (with co-corrector) [5]: +++ (≥350)
- Emax (CSE-HRP, without co-corrector): 100 to 200%

SMILES: COc1ccc(C(F)(F)F)c(CN[C@@H]2[C@@H](C(C)(C)C)[C@H](C(=O)O)N(C(=O)C3CCCCC3)[C@@H]2c2ccccc2)c1 (racemic) [III-106]
- Emax [6]: < 100%
- EC50 [1]: 1000 to 10000 nM
- EC50 [2]: 1000 to 10000 nM
- Maximum % activity (with co-corrector) (with co-corrector (2 μM)): ++ (≥150 and <350)

SMILES: COc1cc(C(C)(C)C)ccc1CN[C@H]1[C@H](C(C)(C)C)[C@@H](C(=O)O)N(C(=O)C2CCCCC2)[C@H]1c1cccnc1OC [II-101]
- EC50 [3]: 1000 to 10000 nM
- EC50 [4]: 1000 to 10000 nM
- Maximum % activity (with co-corrector) [5]: +++ (≥350)
- Emax (CSE-HRP, without co-corrector): 100 to 200%

SMILES: COc1ccc(C(C)(C)C)cc1CN[C@H]1[C@H](C23CC(C2)C3)[C@@H](C(=O)O)N(C(=O)C2CCCCC2)[C@H]1c1ccccc1 [Example I-202]
- EC50 [1]: 1000 to 10000 nM
- EC50 [2]: < 1000 nM
- Maximum % activity (with co-corrector) (with co-corrector (2 μM)): +++ (≥350)
- Emax (without co-corrector): > 200%

SMILES: COc1ccc(C(C)c2ccccc2)cc1CN[C@H]1[C@H](C(C)(C)C)[C@@H](C(=O)O)N(C(=O)C2CCCCC2)[C@H]1c1ccccc1 (stereo partly drawn) [III-171]
- Emax [6]: > 200%
- EC50 [1]: 1000 to 10000 nM
- EC50 [2]: < 1000 nM
- Maximum % activity (with co-corrector) (with co-corrector (2 μM)): +++ (≥350)

SMILES: COc1ccc(-c2ccccc2)cc1CN[C@H]1[C@H](C(C)(C)C)[C@@H](C(=O)O)N(C(=O)C2CCCCC2)[C@H]1c1ccccc1 [Example I-48]
- EC50 [1]: < 1000 nM
- EC50 [2]: < 1000 nM
- Maximum % activity (with co-corrector) (with co-corrector (2 μM)): +++ (≥350)
- Emax (without co-corrector): > 200%

SMILES: COc1cc(C(C)(C)O)ccc1CN[C@H]1[C@H](C(C)(C)C)[C@@H](C(=O)O)N(C(=O)C2CCCCC2)[C@H]1c1ccccc1 [Example I-89]
- EC50 [1]: > 10000 nM
- EC50 [2]: > 10000 nM
- Maximum % activity (with co-corrector) (with co-corrector (2 μM)): + (<150)
- Emax (without co-corrector): < 100%

SMILES: COc1ccc(C23CC(C2)C3)cc1CN[C@H]1[C@H](C(C)(C)C)[C@@H](C(=O)O)N(C(=O)C2CCCCC2)[C@H]1c1ccccc1 [III-202]
- Emax [6]: > 200%
- EC50 [1]: < 1000 nM
- EC50 [2]: < 1000 nM
- Maximum % activity (with co-corrector) (with co-corrector (2 μM)): +++ (≥350)

SMILES: COc1ncc(C2CCC2)cc1CN[C@H]1[C@H](C(C)(C)C)[C@@H](C(=O)O)N(C(=O)C2CCCCC2)[C@H]1c1ccccc1C(C)C [Example 117, (2S,3S,4S,5S)-3-tert-butyl-4-{[(5-cyclobutyl-2-methoxypyridin-3-yl)methyl]amino}-1-(cyclohexanecarbonyl)-5-[2-(propan-2-yl)phenyl]pyrrolidine-2-carboxylic acid]
- EC50 [1]: < 1000 nM
- EC50 [2]: < 1000 nM
- Maximum % activity (with co-corrector) (with co-corrector (2 μM)): +++ (≥350)
- Emax (without co-corrector): > 200%

SMILES: COc1ncc(Br)cc1CN[C@H]1[C@H](C(C)(C)C)[C@@H](C(=O)O)N(C(=O)[C@@H]2CCCO2)[C@H]1c1ccccc1C(C)C [II-594]
- Emax [6]: > 200%
- EC50 [1]: 1000 to 10000 nM
- Maximum % activity (with co-corrector) [7]: +++ (≥350)
- EC50 [2]: < 1000 nM

SMILES: COc1nc2ccccc2cc1CN[C@H]1[C@H](C(C)(C)C)[C@@H](C(=O)O)N(C(=O)OC(C)C)[C@H]1c1ccccc1C [II-579]
- Emax [6]: > 200%
- EC50 [1]: 1000 to 10000 nM
- Maximum % activity (with co-corrector) [7]: +++ (≥350)
- EC50 [2]: < 1000 nM

SMILES: CC(C)(C)[C@H]1[C@H](NCc2cc(Cl)c3c(c2)OCO3)[C@H](c2ccccc2)N(C(=O)C2CCCCC2)[C@@H]1C(=O)O [III-140]
- Emax [6]: < 100%
- EC50 [1]: > 10000 nM
- EC50 [2]: 1000 to 10000 nM
- Maximum % activity (with co-corrector) (with co-corrector (2 μM)): ++ (≥150 and <350)

SMILES: COc1ccc(-c2ccc(C)nc2)cc1CN[C@H]1[C@H](C(C)(C)C)[C@@H](C(=O)O)N(C(=O)C2CCCCC2)[C@H]1c1ccccc1 [II-278]
- EC50 [3]: 1000 to 10000 nM
- EC50 [4]: 1000 to 10000 nM
- Maximum % activity (with co-corrector) [5]: +++ (≥350)
- Emax (CSE-HRP, without co-corrector): 100 to 200%
